According to US9745273B2, “Phenazine derivatives as anti-neoplastic agents and anti-infective agents” (Universitetet I Oslo, priority 2013, dated 2017):

Key:
Solubility in water = type: physicochemical
Text: In the prior art, these problems are not properly addressed. […] In DE 2016467, DE 2115660, U.S. Pat. No. 3,929,790, U.S. Pat. No. 3,937,707, WO 2008/089283, and in Alonso et al, Chem. Comm. 2004, 41, 412-413, methods to alkylate iodinin or myxin via their alkali salts is described. However, the functional groups introduced were alkyl groups, rendering the derivatives less water soluble than the parent compounds. No discussion of improvement in water solubility was described.

certain other bacteria = conditions: cited from earlier work
mouse sarcoma model = conditions: in vivo; cited from earlier work
[1] = Solubility in biocompatible and organic solvents; type: physicochemical
Text: However, production of nano-carriers by emulsion-evaporation merit that the compound to be encapsulated must be dissolved in an organic solvent that is immiscible with water. The present invention enables the production of iodinin-encapsulated nanocarriers—iodinin and a biodegradable polymer can be dissolved in chloroform and mixed with water to make a nano-suspension, and organic solvent evaporated to co-precipitate the polymer with iodinin. To improve the nanonization of iodinin, a polymer can be precipitated to produce nanoparticles. The advantage of incorporating iodinin itself into a biodegradable polymer is that the drug load in the formulation may be higher. The particles may be coated with monoclonal antibodies, e.g. CD11 or CD33 against AML.

[2] = system: leukaemia cell lines and AML-patient blasts; conditions: cited from earlier work
[3] = system: peripheral blood leukocytes (PBL); conditions: at comparable anti-AML activity; cited from earlier work
intestinal mucosa = conditions: mouse, direct infusion of supra-saturated solution into the gut through a tube; cited from earlier work
blood platelets = conditions: at comparable anti-AML activity; cited from earlier work
rat cardiomyoblasts = conditions: at comparable anti-AML activity; cited from earlier work

SMILES | solubility in water (Solubility in water) | inhibition of growth of other bacteria (certain other bacteria) | activity against a mouse sarcoma model (mouse sarcoma model) | solubility in biocompatible solvents ([1]; biocompatible solvents) | solubility in organic solvents ([1]; organic solvents such as toluene and chloroform) | potency against leukaemia cell lines and AML-patient blasts [2] | effect on AML cells ([2]; iodinin extracted from marine actinomycetes bacteria) | toxicity towards peripheral blood leukocytes (PBL) versus DNR [3] | intestinal symptoms / histological alteration of the intestinal mucosa (intestinal mucosa) | toxicity towards blood platelets versus DNR (blood platelets) | toxicity towards rat cardiomyoblasts versus DNR (rat cardiomyoblasts)
[O-][n+]1c2cccc(O)c2[n+]([O-])c2cccc(O)c21 [iodinin, 1,6-dihydroxyphenazine-5,10-dioxide] | practically insoluble | inhibit the growth | low activity | poorly soluble | soluble | particularly potent | pronounced effect | less toxic than DNR | failed to cause any intestinal symptoms or histologically detectable alteration of the intestinal mucosa | less toxic than DNR | less toxic than DNR
COc1cccc2c1[n+]([O-])c1cccc(O)c1[n+]2[O-] [myxin] | practically insoluble | – | low activity | – | – | – | – | – | – | – | –
